Values quoted from earlier work as cited in patent US8771310B2, “Anti-no-reflow guide wire for vascular interventional procedures” (Adenopaint, LLC, priority 2007, dated 2014).

How the values were obtained:
[1] = tested on: patients with stable and unstable angina; conditions: intracoronary infusion or bolus via guide catheter prior to procedure; 24 hours after PCI
patients with STEMI = conditions: large intravenous doses
patients undergoing PCI = conditions: preloading 600 mg
[2] = tested on: patients undergoing PCI of SVGs; conditions: PCI of degenerated SVGs

Nc1ncnc2c1ncn2[C@@H]1O[C@H](CO)[C@@H](O)[C@H]1O [adenosine]
rise in CK-MB and Troponin after PCI [1]: significantly attenuated the rise
cardioprotection with reperfusion therapies (patients with STEMI): cardioprotective affects

COC(=O)[C@H](c1ccccc1Cl)N1CCc2sccc2C1 [clopidogrel]
cell necrosis after PCI (patients undergoing PCI): reduced cell necrosis

B1: abciximab: IIb/IIIa platelet inhibitor (antibody, chains of the INN, looked up, V domains shown)
VH: EVQLQQSGTVLARPGASVKMSCEASGYTFTNYWMHWVKQRPGQGLEWIGAIYPGNSDTSYIQKFKGKAKLTAVTSTTSVYMELSSLTNEDSAVYYCTLYDGYYVFAYWGQGTLVTVSA
VL: EIVLTQSPVTLSVTPGDSVSLSCRASRDISNNLHWFQQTSHESPRLLIKYASQSMSGIPSRFSGSGSGTDFTLSINSVETEDFGMYFCQQTNSWPYTFGGGTKLEIK
modifications: Fab
MACE at thirty days [2]: failed to reduce MACE at thirty days
